This note sets out measurements from PMC9029323, “In Silico Identification of Novel Inhibitors Targeting the Homodimeric Interface of Superoxide Dismutase from the Dental Pathogen Streptococcus mutans” (Antioxidants, 2022).

Entries after “also recorded” stand apart in the source; their conditions may differ.

As a reminder, the IC50 is the concentration that gives 50% inhibition. High values mean lower potency, low ones higher potency.

Data set [1] addresses T1, Cu/ZnSOD from bovine erythrocytes (Bos taurus, UniProt P00442).
T1 construct: the Cu/Zn-SOD from bovine erythrocytes (cat. 574594) were purchased from Sigma–Aldrich; purchased Sigma–Aldrich 574594; host or cells: bovine erythrocytes
The experiment in a line: SOD activity assay with Cu/Zn-SOD. It is filed as biochemical.
Excerpt: Purified recombinant forms of SmSOD and StSOD were obtained through a heterologous expression system constituted by the Escherichia coli BL21(DE3) strain transformed with appropriate expression vectors, vSmSOD [11] or vStSOD [12]. These pET-22b(+)- or pET-28b(+)-derived plasmids led to the production of recombinant forms of SmSOD or StSOD, respectively fused to a His-tail, useful for their one-step purification by affinity chromatography, as previously described [11, 12]. The improvement of Mn uptake by SmSOD was realised as previously described [11, 12, 13]. The resulting metal (Fe and Mn) content in the cambialistic enzyme was determined by graphite furnace atomic absorption spectrometry with a Shimadzu ACS-6100 auto sampler [46]. Fe-SOD from Escherichia coli (cat. SRP6107) and the Cu/Zn-SOD from bovine erythrocytes (cat. 574594) were purchased from Sigma–Aldrich. A recombinant form of the eukaryal Mn–SOD from rat mitochondria was prepared as previously described [19]. Protein concentration was determined by the Bradford method, using bovine serum albumin as standard [47]. […] One unit of SOD activity was defined as the amount of enzyme that caused 50% inhibition of cytochrome c reduction.

The subject of data set [2] is fibroblast cell line BJ-5ta. Kind of data set: Colony-forming assay. It is filed as cell-based, human. The note with it: up to 100 µM. The method, then: The cell line BJ-5ta, a human skin fibroblast immortalised with the human telomerase reverse transcriptase (Cell Culture Facility of CEINGE, Naples, Italy), was cultured in a 4:1 mixture of DMEM and Medium 199 supplemented with 4 mM L-glutamine, 4.5 g/L glucose, 1.5 g/L sodium bicarbonate, 10% FBS, 100 IU/mL penicillin G and […] streptomycin in a humidified incubator at 37 °C under 5% CO2 atmosphere. Cells were split and seeded every 3 days and used during their exponential phase of growth. Cell treatments were usually carried out after 24 h from plating. To obtain total protein extracts from BJ5-ta, cells were seeded into six-well plates (3 × 10^5 cells/plate) for 24 h at 37 °C and then treated with ALS-31 or 0.5% (v/v) DMSO. After treatment, cells were harvested, washed with PBS and then lysed in ice-cold modified radio immunoprecipitation assay (RIPA) buffer (50 mM Tris•HCl, pH 7.4, 150 mM NaCl, 1% Nonidet P-40, 0.25% sodium deoxycholate, 1 mM Na3VO4 and 1 mM NaF), supplemented with protease inhibitors and incubated for 30 min on ice. […]
A colony-forming assay was performed as previously described, with some modifications. […] Cells were photographed with a digital camera (Canon PowerShot G9); the number of colonies (≥50 cells per colony) was counted using ImageJ 1.42q software.

T1 sequence (P00442 whole entry): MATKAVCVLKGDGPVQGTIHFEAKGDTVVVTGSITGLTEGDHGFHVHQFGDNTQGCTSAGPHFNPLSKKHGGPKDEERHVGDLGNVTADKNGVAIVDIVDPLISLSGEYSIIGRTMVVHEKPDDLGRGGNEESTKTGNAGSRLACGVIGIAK

On to `CSCCC(NC(=O)COc1ccc2c3c(c(=O)oc2c1)CCCC3)C(=O)NCCC(=O)O` (centres unmarked) [ALS-31], for which the IC50 in data set [1] was found to be 146 ± 25 µM. The “toxicity for growth / viability of fibroblast cell line BJ-5ta (colony formation)” value in data set [2] was “not affected; also recorded: not toxic”.
